The NIST ThermoML archive (doi:10.1016/j.jct.2016.04.021)

Conditions: for viscosity / mass density: 101.33 kPa, Liquid; for viscosity: Concentric cylinders viscometry; for mass density: Vibrating tube method; for Normal melting temperature: Crystal, DTA; for Glass transition temperature: DSC

CCCCCCCC/C=C\CCCCCCCC(=O)[O-].CCCCCCCC[N+](C)(CCCCCCCC)CCCCCCCC [methyltrioctylammonium oleate]
Conditions	Glass transition temperature [°C]	Normal melting temperature [°C]	mass density [kg/m3]	viscosity [mPa·s]
–	-56.3	-5.9	–	–
293.15 K	–	–	890.5	2934
298.15 K	–	–	887.5	1971.4
303.15 K	–	–	884.5	1354.6
308.15 K	–	–	881.5	957.7
313.15 K	–	–	878.5	692.7
318.15 K	–	–	875.5	511.3
323.15 K	–	–	872.5	384.4
328.15 K	–	–	869.5	293.8
333.15 K	–	–	866.6	227.9
338.15 K	–	–	863.6	179.2
343.15 K	–	–	860.7	142.7
348.15 K	–	–	857.8	114.3
353.15 K	–	–	854.9	92.3
358.15 K	–	–	852	74.9
363.15 K	–	–	849.1	61.8

CCCCCCCC/C=C\CCCCCCCC(=O)[O-].CCCCCCCC[N+](CCCCCCCC)(CCCCCCCC)CCCCCCCC [tetraoctylammonium oleate]
Conditions	Glass transition temperature [°C]	Normal melting temperature [°C]	mass density [kg/m3]	viscosity [mPa·s]
–	-79.8	-29.5	–	–
293.15 K	–	–	878.4	1689.3
298.15 K	–	–	875.3	1153.4
303.15 K	–	–	872.3	804.8
308.15 K	–	–	869.2	575.4
313.15 K	–	–	866.1	420.8
318.15 K	–	–	863.1	314.4
323.15 K	–	–	860.1	239.4
328.15 K	–	–	857.1	185.4
333.15 K	–	–	854.1	146.2
338.15 K	–	–	851.1	117
343.15 K	–	–	848.2	94.9
348.15 K	–	–	845.2	77.9
353.15 K	–	–	842.2	64.1
358.15 K	–	–	839.2	53.5
363.15 K	–	–	836.1	44.3

CCCCCCCC/C=C\CCCCCCCC(=O)[O-].CCCCCC[N+](CCCCCC)(CCCCCC)CCCCCC [tetrahexylammonium oleate]
Conditions	Glass transition temperature [°C]	mass density [kg/m3]	viscosity [mPa·s]
–	-83.2	–	–
293.15 K	–	889.9	2509.9
298.15 K	–	886.9	1623.7
303.15 K	–	883.9	1086.6
308.15 K	–	880.9	749
313.15 K	–	877.8	530.9
318.15 K	–	874.8	384.9
323.15 K	–	871.8	285.3
328.15 K	–	868.8	215.5
333.15 K	–	865.8	165.4
338.15 K	–	862.9	129.5
343.15 K	–	859.9	102.9
348.15 K	–	857	82.8
353.15 K	–	854	67.5
358.15 K	–	851	55.5
363.15 K	–	847.9	45.5

CCCCC(CC)CCC(=O)[O-].CCCCCCCC[N+](C)(CCCCCCCC)CCCCCCCC [methyltrioctylammonium 4-ethyloctanoate]
Conditions	Glass transition temperature [°C]	mass density [kg/m3]	viscosity [mPa·s]
–	-76.6	–	–
293.15 K	–	893.1	5743.4
298.15 K	–	890.1	3733.4
303.15 K	–	887.1	2468.1
308.15 K	–	884	1672.3
313.15 K	–	881	1159.3
318.15 K	–	877.9	820.4
323.15 K	–	874.9	592.1
328.15 K	–	871.8	434.7
333.15 K	–	868.8	324.9
338.15 K	–	865.8	246.3
343.15 K	–	862.8	189.2
348.15 K	–	859.8	147.4
353.15 K	–	856.8	116.1
358.15 K	–	853.9	92.4
363.15 K	–	850.9	74.1
